Each structure is given as a SMILES string. Read-outs that look alike come from different tables or passages of the source.

Consider 51 molecules from article PMC8041284, “Tunable Methacrylamides for Covalent Ligand Directed Release Chemistry” (Journal of the American Chemical Society, 2021).

This experiment addresses BTK (Homo sapiens, UniProt Q06187). Description: biochemical.
Where [1] appears, read: read-out: BTK inhibition (%), 0.75 uM BTK, […] probe 3l, 15 min preincubation.

Sequence of BTK (Q06187 402-655 limits assumed): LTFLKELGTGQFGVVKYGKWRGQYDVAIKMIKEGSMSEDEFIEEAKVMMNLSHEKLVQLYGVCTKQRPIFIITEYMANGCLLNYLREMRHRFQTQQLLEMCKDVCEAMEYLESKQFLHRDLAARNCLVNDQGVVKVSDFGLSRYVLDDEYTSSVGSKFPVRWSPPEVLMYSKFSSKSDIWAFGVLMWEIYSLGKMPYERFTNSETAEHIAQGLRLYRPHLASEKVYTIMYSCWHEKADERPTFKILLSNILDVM

As to `COc1cc(/C=C/C(=O)OC[C@H]2O[C@H](O[C@]3(CO)O[C@H](CO)[C@@H](O)[C@@H]3OC(=O)/C=C/c3cc(OC)c(O)c(OC)c3)[C@H](O)[C@@H](O)[C@@H]2O)cc(OC)c1O` [PCM-0216306], the inhibition (as a rule, the drop in the measured response relative to a control, in per cent) at 10 µM under setting [1] was -6.2%.
The same measure, in the same setting: then `COC(=O)C1=CO[C@@H](O[C@@H]2O[C@H](CO)[C@@H](O)[C@H](O)[C@H]2O)[C@@H]2[C@@]3(C)O[C@H]3[C@@H](O)[C@]12O` [PCM-0216309], with -0.8%; and `C[C@@H]1[C@H]2c3cc4c(cc3O[C@@]35OCOC3=CC(=O)[C@H](C[C@H]1C)[C@@H]25)OCO4` [PCM-0216310], with 33.2%; and `COc1ccc(CCO[C@@H]2O[C@H](CO[C@@H]3OC[C@H](O)[C@H](O)[C@H]3O)[C@@H](OC(=O)/C=C/c3ccc(O)c(OC)c3)[C@H](O[C@@H]3O[C@@H](C)[C@H](O)[C@@H](O)[C@H]3O)[C@H]2O)cc1O` [PCM-0216311], with 3.9%.
As for `CC(C)=CCC[C@H](C(=O)O)[C@@H]1CC[C@]2(C)C3=C(CC[C@@]12C)[C@@]1(C)CCC(=O)C(C)(C)[C@@H]1CC3` [PCM-0216312], the inhibition at 10 µM (read-out: BTK inhibition (%)) is -6.2%.
On the same count and under the same terms, under `CC(=O)O[C@@H]1[C@H]2[C@@H](OC(=O)Cc3ccccc3)[C@@H](C)C[C@]2(OC(C)=O)C(=O)/C(C)=C/[C@@H]2[C@H](CC[C@]13CO3)C2(C)C` [PCM-0216313] stands -27.8%.
For the molecule `COc1cc(O)c(C(=O)/C=C/c2ccccc2)c(OC)c1` [PCM-0216315], under setting [1], the inhibition at 10 µM came out at 6.9%.
The same measure, in the same setting: under `COc1ccc(/C=C/c2cc(OC)cc(=O)o2)cc1` [PCM-0216316] stands -2.3%; under `C[C@@H]1C(=O)O[C@H](C)[C@H]1C[C@@H](O)[C@](C)(O)[C@H]1CC[C@@]2(O)C3=CC(=O)[C@@H]4C[C@@H](O)[C@@H](O)C[C@]4(C)[C@H]3CC[C@]12C` [PCM-0216317], -5.4%.
On to `O=C(O)CC(O)(CC(=O)OCc1ccc(O[C@@H]2O[C@H](CO)[C@@H](O)[C@H](O)[C@H]2O)cc1)C(=O)OCc1ccc(O[C@@H]2O[C@H](CO)[C@@H](O)[C@H](O)[C@H]2O)cc1` (stereo partly drawn) [PCM-0216319], for which, under setting [1], the inhibition at 10 µM is -28.6%.
Turning to `COC1=C[C@@]23CCN(C)[C@@H](Cc4ccc(OC)c(O)c42)C3=CC1=O` [PCM-0216320], the inhibition at 10 µM (read-out: BTK inhibition (%)) came out at 3.1%.
`CC12CC(c3ccoc3)OC13CC(OC3=O)C1C3CC(CC12)OC3=O` (stereo not drawn) [PCM-0216321]: the inhibition at 10 µM under setting [1] worked out at 2.3%.
The same measure, in the same setting: then `COc1cc(-c2oc3cc(O)cc(O)c3c(=O)c2O[C@@H]2O[C@H](CO[C@@H]3O[C@@H](C)[C@H](O)[C@@H](O)[C@H]3O)[C@@H](O)[C@H](O)[C@H]2O)ccc1O` [PCM-0216322], with 8.5%; and `Oc1ccc2c(c1)OC[C@]1(O)Cc3cc(O)c(O)cc3[C@H]21` [PCM-0216323], with 0%; and `COC(=O)C1=CO[C@@H](O[C@@H]2O[C@H](CO)[C@@H](O)[C@H](O)[C@H]2O)[C@@H]2C(CO)=C[C@H](O)[C@H]12` [PCM-0216324], with -7.7%.
With `COc1cc2c(cc1OC)-c1c(C)c3ccc(OC)c(OC)c3c[n+]1CC2` [PCM-0216326], the inhibition at 10 µM under setting [1] came out at 0%.
The same measure, in the same setting: under `CCCCCC/C=C\CCCCCCCc1cccc(O)c1C(=O)O` [PCM-0216327] stands 84.2%; under `CC1OC2OC3C(OCC(O)C3O)OC(=O)C34CCC(C)(C)CC3C3=CCC5C6(C)CC(O)C(OC7OC(CO)C(O)C(O)C7OC7OCC(OC(=O)CC(C)(O)CC(=O)OC1C(OC1OCC(O)C(O)C1O)C2O)C(O)C7O)C(C)(CO)C6CCC5(C)C3(C)CC4O` (stereo not drawn) [PCM-0216328], -1.5%.
In the case of `CCCCCCC[C@H](O)CC(=O)CCc1ccc(O)c(OC)c1` [PCM-0216329], the inhibition at 10 µM under setting [1] is -41.7%.
With `C=C1C[C@@]23CC[C@H]4[C@@](C)(CCC[C@@]4(C)C(=O)O)[C@@H]2CC[C@@H]1C3` [PCM-0216330], under setting [1], the inhibition at 10 µM is -3.9%.
Turning to `COc1cc(/C=C/C(=O)O[C@H]2[C@H](O)[C@@H](CO)O[C@@]2(CO)O[C@H]2O[C@H](CO)[C@@H](O)[C@H](O)[C@H]2O)ccc1O` [PCM-0216331], the inhibition at 10 µM under setting [1] is -3.1%.
As for `C/C=C(/C)C(=O)O[C@H]1c2cc(OC)c(OC)c(OC)c2-c2c(cc3c(c2OC)OCO3)C[C@H](C)[C@]1(C)O` [PCM-0216333], the inhibition at 10 µM under setting [1] is -25.5%.
For `CCCCCCCCCCCCCc1cccc(O)c1C(=O)O` [PCM-0216334], the inhibition at 10 µM under setting [1] was determined as 34%.
With `OC[C@H]1O[C@@](CO)(OC[C@@]2(OC[C@@]3(OC[C@@]4(O[C@H]5O[C@H](CO)[C@@H](O)[C@H](O)[C@H]5O)O[C@H](CO)[C@@H](O)[C@@H]4O)O[C@H](CO)[C@@H](O)[C@@H]3O)O[C@H](CO)[C@@H](O)[C@@H]2O)[C@@H](O)[C@@H]1O` [PCM-0216335], the inhibition at 10 µM under setting [1] stood at 6.9%.
Consider `O=C(O)CC(O)C(=O)O` (stereo not drawn) [PCM-0216336], for which, under setting [1], the inhibition at 10 µM was -11.6%.
The same measure, in the same setting: then `C[C@@H]1OC(O)[C@@H](O)[C@H](O)[C@@H]1O` (stereo partly drawn) [PCM-0216337], with -23.2%; and `O=C(O)[C@H](O)c1ccccc1` [PCM-0216338], with -10%; and `C=C(C)C1CC=C(/C=N/O)CC1` (stereo not drawn) [PCM-0216339], with -2.3%.
Still for that read-out and setting: then `C[C@@H]1O[C@@H](O[C@H]2[C@H](O)[C@@H](O)[C@H](OC[C@H]3O[C@@H](OC(=O)[C@]45CCC(C)(C)C[C@H]4C4=CC[C@@H]6[C@@]7(C)CC[C@H](O[C@@H]8OC[C@H](O)[C@H](O)[C@H]8O)[C@@](C)(CO)[C@@H]7CC[C@@]6(C)[C@]4(C)CC5)[C@H](O)[C@@H](O)[C@@H]3O)O[C@@H]2CO)[C@H](O)[C@H](O)[C@H]1O` [PCM-0216340], with -10.2%.
As to `COC(=O)C[C@](O)(CCCC(C)(C)O)C(=O)O[C@@H]1C(OC)=C[C@]23CCCN2CCc2cc4c(cc2[C@H]13)OCO4` [PCM-0216341], the inhibition at 10 µM under setting [1] worked out at 4.6%.
Same read-out and setting: under `C[C@@H]1O[C@@H](O[C@H]2[C@H](O[C@H]3CC[C@@]4(C)[C@@H](CC[C@]5(C)[C@@H]4CC=C4[C@@H]6CC(C)(C)CC[C@]6(C(=O)O[C@@H]6O[C@H](CO[C@@H]7O[C@H](CO)[C@@H](O)[C@H](O)[C@H]7O)[C@@H](O)[C@H](O)[C@H]6O)CC[C@]45C)[C@]3(C)CO)OC[C@H](O)[C@@H]2O)[C@H](O)[C@H](O)[C@H]1O` [PCM-0216342] stands -25.5%; under `Cc1cccc2c3c(ccc12)C1=C(C(=O)C3=O)[C@@H](C)CO1` [PCM-0216343], 22.4%; under `CC(C)=CCC[C@@](C)(O)[C@H]1CC[C@]2(C)[C@@H]1[C@H](O)C[C@@H]1[C@@]3(C)CC[C@H](O[C@@H]4O[C@H](CO)[C@@H](O)[C@H](O)[C@H]4O)C(C)(C)[C@@H]3CC[C@]12C` [PCM-0216344], -23.2%.
Same read-out and setting: then `CC(C)=CCC[C@](C)(O)[C@H]1CC[C@]2(C)[C@@H]1[C@H](O)C[C@@H]1[C@@]3(C)CC[C@H](O[C@@H]4O[C@H](CO)[C@@H](O)[C@H](O)[C@H]4O)C(C)(C)[C@@H]3CC[C@]12C` [PCM-0216344], with 7.7%; and `COC(=O)C1=CO[C@@H](O[C@@H]2O[C@H](CO)[C@@H](O)[C@H](O)[C@H]2O)[C@@H]2[C@@H](C)CC(=O)[C@]12O` [PCM-0216345], with -3.1%; and `COc1c2c(cc3oc(CO[C@@H]4O[C@H](CO)[C@@H](O)[C@H](O)[C@H]4O)cc(=O)c13)O[C@H](C(C)(C)O)C2` [PCM-0216346], with 7.7%.
Consider `CC(C)=CCC/C(C)=C/Cc1c(O)c(CC=C(C)C)c2c(c1O)C(=O)C1=C[C@@H]3C[C@H]4C(C)(C)O[C@@](C/C=C(/C)C(=O)O)(C3=O)[C@@]14O2` [PCM-0216347], for which the inhibition at 10 µM under setting [1] was determined as 100%.
As to `CC(=O)O[C@H]1CC/C(C)=C/CC/C(C)=C/C[C@]2(C(C)C)CC[C@@]1(C)O2` [PCM-0216348], the inhibition at 10 µM under setting [1] was -10%.
Still for that read-out and setting: then `C[C@]12C[C@@H](O)[C@@H]3C[C@@]1(O[C@@H]1O[C@H](CO)[C@@H](O)[C@H](O)[C@H]1O)[C@]3(COC(=O)c1ccccc1)C(=O)O2` [PCM-0216349], with -12.4%; and `CC(C)c1ccc2c(c1O)CC[C@H]1C3=C(CC[C@]21C)C(=O)OC3` [PCM-0216350], with 0.8%; and `COc1cc2c(cc1O)C[C@H]1c3c(cc(O)c(OC)c3-2)CCN1C` [PCM-0216351], with 6.9%.
The same measure, in the same setting: then `CC(=O)OCC1=C[C@@H]2OC(=O)C3=CO[C@@H](O[C@@H]4O[C@H](CO)[C@@H](O)[C@H](O)[C@H]4O)[C@H]1[C@@H]32` [PCM-0216352], with 10.8%; and `COc1cc(-c2coc3cc4c(c(OC)c3c2=O)OCO4)cc(OC)c1OC` [PCM-0216353], with -9.3%; and `O=C(/C=C/c1ccc(O)c(O)c1/C=C/c1ccc(O)c(O)c1)O[C@H](Cc1ccc(O)c(O)c1)C(=O)O` [PCM-0216354], with 30.9%.
On the same count and under the same terms, under `C=CC/C(=N\OS(=O)(=O)O)S[C@@H]1O[C@H](CO)[C@@H](O)[C@H](O)[C@H]1O` [PCM-0216356] stands 3.9%; under `O=C(O[C@@H]1Cc2c(O)cc(O)cc2O[C@H]1c1cc(O)c(O)c(O)c1)c1cc(O)c(O)c(O)c1` [PCM-0216357], 40.9%.
With `O=c1cc(-c2ccc(O[C@@H]3O[C@H](CO)[C@@H](O)[C@H](O)[C@H]3O)cc2)oc2c([C@@H]3O[C@H](CO)[C@@H](O)[C@H](O)[C@H]3O)c(O)cc(O)c12` [PCM-0216358], under setting [1], the inhibition at 10 µM is -3.9%.
The same measure, in the same setting: under `OC[C@H]1O[C@@](CO)(OC[C@@]2(OC[C@@]3(O[C@H]4O[C@H](CO)[C@@H](O)[C@H](O)[C@H]4O)O[C@H](CO)[C@@H](O)[C@@H]3O)O[C@H](CO)[C@@H](O)[C@@H]2O)[C@@H](O)[C@@H]1O` [PCM-0216359] stands 7.7%.
Consider `O=C1C([C@@H]2O[C@H](CO)[C@@H](O)[C@H](O)[C@H]2O)=C(O)/C(=C(O)/C=C/c2ccc(O)cc2)C(=O)C1(O)[C@@H]1O[C@H](CO)[C@@H](O)[C@H](O)[C@H]1O` (stereo partly drawn) [PCM-0216360], for which the inhibition at 10 µM (read-out: BTK inhibition (%)) worked out at 23.9%.
Regarding `CC(O)[C@H](C)[C@H](N)C(=O)O` (stereo partly drawn) [PCM-0216361], the inhibition at 10 µM under setting [1] was -2.6%.
Turning to `COC(=O)C[C@](O)(CCC(C)(C)O)C(=O)O[C@@H]1C(OC)=C[C@]23CCCN2CCc2cc4c(cc2[C@H]13)OCO4` [PCM-0216362], the inhibition at 10 µM (read-out: BTK inhibition (%)) was -7.7%.
